Entries after “also recorded” stand apart in the source; their conditions may differ.
Assays:
pSTAT3 and MYC = test: Western blot of pSTAT3 and MYC in adult human articular chondrocytes; type: cell-based; settings: for levels of MYC / levels of pSTAT3: adult human articular cartilage/chondrocytes, treated vs untreated, relative to histone H3
Description: Only early passages of chondrocytes (passage 0-2) were used for experimentation to avoid de-differentiation and loss of cartilage phenotype (Wu et al., 2014). Cartilage explants were made using 1, 2 or 8 mm biopsy punch and wet weight of each explant determined prior to experimentation. For cell isolation cartilage tissue was digested as described previously (Wu et al., 2015). Postnatal paraffin embedded joint and growth plate specimens were kindly donated by Dr Marcel Karperien from the University of Twente (Netherlands) and Dr Nick Bernthal from University of California Los Angeles. All donated material was anonymous and carried no personal identifiers. Cell culture reagents were purchased from Life Technologies, Inc. (Grand Island, N.Y.). Growth factors LIF, OSM, IL-6, TNF-α, IL-1β were purchased from Life Technologies, Inc (Grand Island, N.Y.). STATTIC, 10058-F4, SCl44 hydrochloride, and CP-690550 were purchased from Sigma Aldrich (St. Louis, Mo.). RCGD 423 (N-(4-Bromophenyl)-4-phenyl-1,3-thiazol-2-amine) was synthesized and provided by MolPort (Riga, Latvia). Fetal, adult and pig chondrocytes were cultured in DMEM F12 medium containing 10% (vol/vol) fetal bovine serum and 1% Penicillin-Streptomycin (vol/vol) at 37° C. in a humidified atmosphere of 95% aid and 5% CO2. Media was replenished with DMEM F12 medium containing 1% (vol/vol) fetal bovine serum and 1% Penicillin-Streptomycin (vol/vol) once treatments were added. For 3-dimensional (3D) cell cultures adult human articular chondrocytes were incubated with or without RCGD 423 using 10% solution of Mebiol® hydrogel from Cosmo Bio (Carlsbad, Calif.) in X-vivo 15 serum free medium from Lonza (Walkersville, Md.) as described previously (Wu et al., 2014).
Treated and non-treated ells were lysed in RIPA Lysis and Extraction Buffer (Pierce, Rockford, Ill.) containing protease inhibitors (Pierce) followed by sonication with a 15-second pulse at a power output of 2 using the VirSonic 100 (SP Industries Company, Warminster, Pa.). Protein concentrations were determined by BCA protein assay (Pierce). Proteins were resolved with SDS-PAGE utilizing 4-15% Mini-PROTEAN TGX Precast Gels and transferred to Trans-Blot Turbo Transfer Packs with a 0.2-μm pore-size nitrocellulose membrane. The SDS-PAGE running buffer, 4-15% Mini-PROTEAN TGX Precast Gels, Trans-Blot Turbo Transfer Packs with a 0.2-μm pore-size nitrocellulose membrane were purchased from Biorad (Hercules, Calif.). Nitrocellulose membranes were blocked in 5% nonfat milk in 0.05% (v/v) Tween 20 (PBST) (Corning, Manassas, Va.). Membranes were then incubated with primary antibodies phospho-STAT3 (#9131), MYC (#5605), NF-κB p65 (#D14E12), pAKT (#9272) Histone 3 (#9715) from Cell Signaling, (Danvers, Mass.); MEK1/2 (ab70613) and p38 (ab795) from Abcam (Cambridge, Mass.) overnight. After washing in PBS containing 0.05% (v/v) Tween 20 (PBST), membranes were incubated with Goat anti-Rabbit IgG (H+L) Secondary Antibody (Thermo Scientific Rockford, Ill.). After washing, membranes were developed with the Clarity Western ECL Blotting Substrate (Hercules, Calif.).

[1] = test system: adult human articular chondrocytes; test: Survival / apoptosis (Annexin V) of adult articular chondrocytes; type: cell-based; settings: for chondrocytes survival in adult explants: LIF 50 ng/mL, CRM-423 10 uM
Procedure: FIGS. 28A-28I. Small molecule-mediated activation of a fetal-like molecular and functional phenotype in adult articular cartilage. (FIG. 28A) Adult human articular chondrocytes were incubated with or without RCGD 423 and levels of MYC and pSTAT3 were quantified relative to histone H3. (FIG. 28B) Levels of MYC and pSTAT3 protein were measured in pig adult articular chondrocytes to determine the effects of RCGD 423 in a dose- and time-dependent manner; histone H3 was used as a loading control. (FIG. 28C) Migration of adult human articular chondrocytes in a Transwell® assay was assessed in the presence and absence of RCGD 423. (FIG. 28D) Adult human articular chondrocytes were incubated with or without RCGD 423 in hydrogel for 24 hours and then apoptotic cells were quantitated via flow cytometry for Annexin V. (FIG. 28E) Single human adult articular chondrocytes were cultured for 5 weeks with or without stimulation with RCGD 423. (FIG. 28F) Proliferation in explants of adult pig articular cartilage in the absence or presence of RCGD 423 as shown by EdU incorporation. Explants of adult pig articular cartilage were incubated with EdU in the presence or absence of LIF to detect proliferating cells. Scale bars represent 25 μm. (FIG. 28G) Metabolic activity of human adult articular chondrocytes (ECAR and OCR) was assessed in the presence or absence of RCGD 423; the response in these parameters to stimulation with LIF is shown for comparison. […]
Only early passages of chondrocytes (passage 0-2) were used for experimentation to avoid de-differentiation and loss of cartilage phenotype (Wu et al., 2014). Cartilage explants were made using 1, 2 or 8 mm biopsy punch and wet weight of each explant determined prior to experimentation. […]
TdT-mediated dUTP nick-end labeling (TUNEL) or EdU assays were performed by using in situ cell death detection kit (TUNEL, Roche Diagnostics GmbH, Germany) or Click-iT® Assay Kit obtained from Invitrogen (Carlsbad, Calif.), respectively, as described in the manufacturer's protocol. […] After staining sections were analyzed using fluorescent microscopy. […]

[2] = 48 hours after withdrawal (data not shown)
[3] = human adult articular chondrocytes, 1 μM

With `Brc1ccc(Nc2nc(-c3ccccc3)cs2)cc1` [RCGD 423, N-(4-Bromophenyl)-4-phenyl-1,3-thiazol-2-amine] the “specificity and selectivity of effect for p-STAT3 and c-MYC” value (pSTAT3 and MYC) was “highly specific and selective”, the “protein level of c-MYC after withdrawal” value (pSTAT3 and MYC; [2]) was “decreased” and the “protein level of p-STAT-3 after withdrawal” value (pSTAT3 and MYC; [2]) was “decreased”. The “levels of MYC” value (pSTAT3 and MYC) was “robustly increased”, the “levels of pSTAT3” value (pSTAT3 and MYC) was “robustly increased” and the “levels of c-MYC” value (pSTAT3 and MYC; [3]) was “elevated”. For the same molecule, the “levels of p-STAT3” value (pSTAT3 and MYC; [3]) was “elevated”, the “chondrocytes survival in adult explants” value [1] was “increase” and the “apoptosis (Annexin V)” value ([1]; adult human articular chondrocytes in hydrogel, 24 hours) was “decreased”.
“LIF: interleukin 6 (IL-6)-class cytokine” was tested, and the “levels of MYC” value (pSTAT3 and MYC) was “large increases; also recorded: robustly increased”, the “levels of pSTAT3” value (pSTAT3 and MYC) was “large increases; also recorded: robustly increased” and the “chondrocytes survival in adult explants” value [1] was “increase; also recorded: promoted survival”.

— patent US11072592B2, “Small molecules that enable cartilage rejuvenation” (The Regents of the University of California, priority 2015, dated 2021)
